Key:
[1] = Stability of compound in presence of oxyhemoglobin assessed as pseudo-first order degradation rate constant at 10 uM at 20degC over 24 hrs; format: ADME
[2] = Stability of compound in presence water assessed as pseudo-first order degradation rate constant at 10 uM at 20degC over 24 hrs; format: physicochemical; conditions: buffer
[3] = Stability of compound in presence of […] assessed as pseudo-first order degradation rate constant at 10 uM at 20degC over 24 hrs; format: ADME

SMILES	Activity [1]	Activity [2]	Activity [3]
CO[C@H]1O[C@@H]2O[C@@]3(C)CC[C@H]4[C@H](C)CC[C@@H]([C@H]1C)[C@@]24OO3 [ARTEMETHER]	0.007 h⁻¹	0.002 h⁻¹	0.002 h⁻¹
C[C@@H]1CC[C@H]2[C@@H](C)C(=O)O[C@@H]3O[C@@]4(C)CC[C@@H]1[C@]32OO4 [ARTEMISININ]	0.008 h⁻¹	0.0004 h⁻¹	0.003 h⁻¹
O=C(O)C[C@H]1CC[C@]2(CC1)OO[C@]1(O2)C2CC3CC(C2)CC1C3	0.01 h⁻¹	0.006 h⁻¹	0.006 h⁻¹
C[C@H]1[C@@H](O)O[C@@H]2O[C@@]3(C)CC[C@H]4[C@H](C)CC[C@@H]1[C@@]24OO3 [ARTENIMOL]	0.017 h⁻¹	0.00001 h⁻¹	0.004 h⁻¹
CC(C)(N)CNC(=O)C[C@H]1CC[C@]2(CC1)OO[C@]1(O2)C2CC3CC(C2)CC1C3 [OZ277]	0.01 h⁻¹	0.015 h⁻¹	0.013 h⁻¹
